Test results: publication PMC12516379, “Rotamer-Controlled Self-Immolative Linkers Enable Tunable Release of Neurosteroid Oxime Prodrugs” (ACS Medicinal Chemistry Letters, 2025)

How the values were obtained:
[1] = Stability in PBS at room temperature via HPLC (UV); assay type: physicochemical; settings: phosphate-buffered saline (DPBS)
Method in brief: (§1)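 Progesterone prodrugs dissolved at 1 mg/mL in PBS (pH 7.03) or 10 mM acetate buffer (pH 5.0), kept at RT and reinjected over time, HPLC-UV AUC at 254 nm. Percent parent remaining; k from ln(%remaining) vs time, pseudo-first-order t1/2 = 0.693/k; duplicates averaged.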

[2] = Formation of progesterone oxime 3 from prodrugs in human plasma at 37 °C over 2 h; assay type: in vitro ADME; settings: 2 h period
Method: Given the greater biological relevance of plasma, we focused on quantifying the formation of progesterone and allopregnanolone oxime in human plasma at 37 °C over a 2 h period. Results for selected progesterone prodrugs are presented in Figure A–C, illustrating the broad range of plasma cleavage rates as a function of promoiety design (see Figure S13 in Supporting Information for complete data set). Complete stability data for synthesized allopregnanolone prodrugs (Figures S18–S20) are provided in the Supporting Information. Given that their trends closely paralleled the progesterone series, they were not discussed in detail in the main text. […] This unexpected result prompted further investigation using computational modeling, described in the following section. […] Higher pK a values were associated with faster and more complete oxime formation, likely due to enhanced H-bonding which could stabilize the reactive syn-conformer. […] For the heterocyclic pyrrolidine and angle-strained series (Figure C), the release rates closely matched the experimentally determined prodrug half-lives (Table ), which were shorter in human plasma than in PBS. […] Although both 20s and 20t are capable of adopting the reactive syn-rotamer, their self-immolation reactivity diverged due to differences in linker geometry. The cyclopropane in 20s induces angle strain that hinders nucleophilic attack, rendering the compound stable under both PBS and plasma conditions. […] This intriguing result warrants further investigation, with follow-up studies currently in progress. Finally, the nucleophilic capacity of the amine tethers in prodrugs 20w–20z were evaluated based on their ability to cyclize in plasma, as detailed in the Supporting Information Figure S13.
1.2 Stability in Plasma and PBS via LCMS
Procaine (positive control) was purchased from Sigma-Aldrich. HPLC grade MeCN, MeOH, H2O, and FA were purchased from Fischer Scientific. Human plasma (cat. No. […]- […]
0102242) were obtained from BIOIVT. DPBS 1X (no calcium, no magnesium, pH = 7.03) was purchased from Thermo Fischer Scientific. Stock solutions were prepared in 100% DMSO, and suitable dilutions of target analytes were prepared in 0.1% FA /MeCN for method development.
For PBS assay Gibco® Dulbecco’s phosphate-buffered saline (DPBS 1X, no calcium, no magnesium, pH = 7.03) was utilized. All experiments were performed in duplicate and results are presented as the average of two experimental replicates.
Procedure for Plasma Stability Assay
Test compounds and positive control (i.e. procaine) were dissolved in DMSO to make a 10 mM stock solution and subsequently diluted to 500 μM in 50% MeCN and PBS. […] The supernatant was transferred to an LC-MS vial and analyzed by LC/MS-MS. […]

[3] = Stability in acetate buffer pH 5.0 at room temperature via HPLC (UV); assay type: physicochemical
Method in brief: as §1

[4] = PBS stability assay at 37 °C via LC-MS/MS; assay type: physicochemical; settings: 37 °C; for half-life at 3 µM: phosphate-buffered saline (DPBS), pH 7.03, PBS
[5] = Aqueous solubility by visual inspection in acetate buffer (pH 5); settings: sodium acetate buffer, pH 5, aqueous buffer, thermodynamic from solid
Method: For the solubility assessment, acetate buffer (pH 5) was selected as the media of choice to ensure prodrug stability during analysis.
High aqueous solubility was determined by visual inspection of 5 mg solid material in 0.5 mL
sodium acetate buffer solution. This media was selected to ensure stability of prodrugs during
dissolution in 50 mg/mL aqueous media.

[6] = Plasma stability assay at 37 °C via LC-MS/MS, human plasma; assay type: in vitro ADME;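 also: prodrugs at 3 µM incubated in human plasma at 37 °C, intact prodrug quantified by LC-MS/MS over time, values are means of duplicate runs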
[7] = pH 7.03, DPBS pH 7.03, RT, 1 mg/mL, HPLC 254 nm, read-out: t1/2 in PBS buffer at RT (Tables S1-S4) (converted)
[8] = pH 7.03, PBS, rt, read-out: t½: PBS, rt (Table S23) (converted)
[9] = pH 5, acetate buffer pH 5.0, RT, 1 mg/mL, HPLC 254 nm, read-out: t1/2 in acetate buffer at RT (Tables S5-S8) (converted)
[10] = pH 5, acetate buffer pH 5.0, rt, read-out: t½: pH 5.0, rt (Table S23) (converted)

Row | SMILES | half-life at 1 mg/mL [1, 7] | half-life at 1 mg/mL [1, 8] | Formation/release of oxime 3 in human plasma, in words [2] | half-life at 1 mg/mL [3, 9] | half-life at 1 mg/mL [3, 10] | PBS, 37 °C %rem. at 2h (Table S23) ([4]; PBS, 2 h) | half-life at 3 µM ([4]; 3 µM, LC-MS/MS, read-out: t1/2 in PBS at 37 °C (Tables S14-S17) (converted)) | half-life at 3 µM ([4]; read-out: PBS, 37 °C t½ (Table S23) (converted)) | solubility [5] | t1/2 in human plasma at 37 °C (Tables S10-S13, S18) ([6]; 3 µM, LC-MS/MS) | Plasma, 37 °C %rem. at 2h (Table S23) ([6]; 2 h) | half-life at 3 µM ([6]; human, plasma, read-out: Plasma, 37 °C t½ (Table S23) (converted)) | half-life at 1 mg/mL ([1]; pH 7.03, PBS, rt, HPLC (UV), read-out: Half-life (t½) PBS rt (converted)) | half-life at 1 mg/mL ([3]; pH 5, acetate buffer pH 5.0, rt, HPLC (UV), read-out: Half-life (t½) pH 5.0 rt (converted))
1 | C/C(=N\OC(=O)N(C)CC[C@@H]1CCCN1)[C@H]1CC[C@H]2[C@@H]3CCC4=CC(=O)CC[C@]4(C)[C@H]3CC[C@]12C.O=C(O)C(F)(F)F [20n] | > 24 h | > 24 h | low levels of oxime | > 168 h | > 168 h | 77% | 26.5 h | 26.5 h | > 10000 µg/mL | stable | stable | > 24 h |  | 
2 | CNCCN(CCN(C)C)C(=O)O/N=C(\C)[C@H]1CC[C@H]2[C@@H]3CCC4=CC(=O)CC[C@]4(C)[C@H]3CC[C@]12C [20g] | 2.17 ± 0.02 h | 2.17 h | rapid, first-order release | 75.8 h | 75.8 h |  |  |  | < 10000 µg/mL |  |  |  | 2.17 h | 75.8 h
